Results published in publication PMC11018795, “The regulatory relationship between NAMPT and PD-L1 in cancer and identification of a dual-targeting inhibitor” (EMBO Molecular Medicine, 2024).
“And” between values parts separate entries of the source, which are not always exact repeats. Equal entries are not always repeated.

Experiments:
PD-L1 = molecular target: T1, PD-L1 (Homo sapiens, UniProt Q9NZQ7); assay: Cellular thermal shift assay (CETSA), PD-L1, A2780 cells; type: binding; conditions: for Relative band intensity (PD-L1): LZFPN-90 20 nM
T1 construct: endogenous in cells; host or cells: A2780
T1 sequence (Q9NZQ7 19-290): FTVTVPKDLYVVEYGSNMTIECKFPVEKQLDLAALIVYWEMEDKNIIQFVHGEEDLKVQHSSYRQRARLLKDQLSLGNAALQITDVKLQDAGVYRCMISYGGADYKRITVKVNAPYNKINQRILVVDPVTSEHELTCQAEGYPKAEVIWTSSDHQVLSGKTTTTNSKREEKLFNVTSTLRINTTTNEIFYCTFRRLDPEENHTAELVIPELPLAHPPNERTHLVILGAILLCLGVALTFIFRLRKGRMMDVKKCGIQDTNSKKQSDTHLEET
Method: (§1) The cells were resuspended in 1× PBS supplemented with protease inhibitors (Roche) and then divided into strip tubes for 30 min. The tubes were centrifuged at 15,000× g at 4 °C for 15 min. After centrifugation, the supernatant was divided into DMSO and LZFPN-90 (20 nM) groups, and incubated at room temperature for 30 min. According to standard procedures (38 °C, 42 °C, 46 °C, 50 °C, 54 °C, 58 °C, 62 °C, 66 °C), each temperature group was heated for 3 min, incubated at room temperature for 3 min. Then centrifuged at 20,000× g for 25 min, the supernatant was collected, 1× loading buffer was added, the mixture was heated in a metal bath at 95 °C for 10 min, and the amount of non-denatured protein per sample was quantified by western blotting.

HepG2 cells = assay: MTT assay 48 h, HepG2; type: cell-based, human
Method: Cells (5 × 10^3/well) were seeded into a 96-well plate and cultured at 37 °C in a 5% CO2 incubator. […] At the final time point, 10 μl MTT solution (5 mg/ml, Sigma, Burlington, MA, USA) was added to each well and incubated for an additional 4 h at 37 °C in a 5% CO2 incubator. Then,100 μl of DMSO was added to each well and mixed thoroughly. Optical density was measured at 492 nm using a microplate reader (Molecular Devices, San Jose, CA, USA).

A2780 cells [1] = assay: Clonogenic assay, A2780; type: cell-based, human; conditions: 9 days
Method: Cells (3 × 10^2/well) were plated in a six-well plate and the culture medium was replaced every 2 days. After culturing for 7–10 d, the cells were fixed with 4% paraformaldehyde for 15 min, stained with 0.1% crystal violet for 30 min, and imaged and counted.

HCT-116 cells = assay: Cell cycle analysis, HCT-116; type: cell-based, human
Excerpt: (§2) Supplement 44321_2024_51_MOESM5_ESM.zip/Fig4-D.xlsx, sheet "Sheet1" | column: G0/G1; S; G2/M

LLC cells = assay: Cell cycle analysis, LLC; type: cell-based, mouse
Excerpt: as §2

A2780 cells [2] = assay: Apoptosis assay (Annexin V/PI), A2780; type: cell-based, human
Method: The cells are treated with the compounds. After 48–72 h, the cells were harvested and washed twice with cold PBS. The cells were then stained with Annexin V/propidium iodide (PI) (BD Biosciences) and examined using a NovoCyte Flow Cytometer (ACEA Biosciences). Data were analyzed using NovoExpress software (ACEA Biosciences).

[3] = test system: LLC OE NAMPT/PD-L1 tumors; assay: LLC OE NAMPT/PD-L1 tumor-bearing C57BL/6 mice; type: in vivo, mouse; conditions: 20 mg/kg i.p.
[4] = test system: LLC cells co-cultured with T cells; assay: T cell killing assay (colony formation), LLC sh Vector; type: cell-based; conditions: Mus musculus, 72 h, 100 nM, three days, read-out: inhibition rate of colony formation number
Method: (§3) To acquire activated T cells, human peripheral blood mononuclear cells (PBMC; LTS1077, Yanjin Biological) were cultured in CTSTM AIIM VTM SFM (A3021002; Gibco) with ImmunoCult Human CD3/CD28/CD2 T-cell activator (25 μL/mL; […] Technologies, Cat#10970) for 48 h according to the manufacturer's protocol. The experiments were performed using mouse anti-CD3 antibody (1 μg/mL; Thermo Scientific, 16-0032-82) and anti-CD28 antibody(5 μg/mL; Thermo Scientific, 16-0281-82). […] Different proportions of cancer cells and activated T cells were utilized according to the purpose of each experiment. The T-cell proliferation assay was 1:3; the T-cell killing assay was 1:10; T cells and cell debris were removed by PBS washing, and the living cancer cells were then quantified by a spectrometer at OD (570 nm) followed by crystal violet staining. page 28: Fig 8: Effects of LZFPN-90 and NMN on tumor immune microenvironment. […] (C) T cells were co-cultured with LLC cells, and treated with LZFPN-90 (100 nM), and NMN (1 mM) to detect the cell proliferation by T cell killing assay. Data are presented as mean ± SEM; *P < 0.05, **P < 0.01, ***P < 0.001 compared with control. n.s., not significant. (1 picture or pasted object on this page, not shown here)

[5] = test system: LLC sh NAMPT cells co-cultured with T cells; assay: T cell killing assay (colony formation), LLC sh NAMPT; type: cell-based; conditions: Mus musculus, 72 h, 100 nM, three days, read-out: inhibition rate of colony formation number
Method: as §3

[6] = test system: LLC sh PD-L1 cells co-cultured with T cells; assay: T cell killing assay (colony formation), LLC sh PD-L1; type: cell-based; conditions: Mus musculus, 72 h, 100 nM, three days, read-out: inhibition rate of colony formation number
Method: as §3

[7] = test system: lung cancer organoids derived from lung cancer patients; assay: Patient-derived lung cancer organoid viability; type: cell-based, human; conditions: 100 nM; 9 days
Method: Human lung cancer samples were obtained from Shengjing Hospital of China Medical University (IRB No. 2023PS1105K). The establishment of lung cancer patient-derived organoids was performed as described ([…] et al, [2019]). Organoids were seeded into 96-well plates and treated with the corresponding compounds for 9 days, and cell viability was determined by CellTiter Glo 3D cell viability assay (Promega, G9683).

NAMPT = NAMPT (Homo sapiens, UniProt P43490); assay: Cellular thermal shift assay (CETSA), NAMPT, A2780 cells; type: binding; parameters: endogenous in cells; host or cells: A2780; conditions: for Relative band intensity (NAMPT): LZFPN-90 20 nM
NAMPT, sequence (P43490 whole entry): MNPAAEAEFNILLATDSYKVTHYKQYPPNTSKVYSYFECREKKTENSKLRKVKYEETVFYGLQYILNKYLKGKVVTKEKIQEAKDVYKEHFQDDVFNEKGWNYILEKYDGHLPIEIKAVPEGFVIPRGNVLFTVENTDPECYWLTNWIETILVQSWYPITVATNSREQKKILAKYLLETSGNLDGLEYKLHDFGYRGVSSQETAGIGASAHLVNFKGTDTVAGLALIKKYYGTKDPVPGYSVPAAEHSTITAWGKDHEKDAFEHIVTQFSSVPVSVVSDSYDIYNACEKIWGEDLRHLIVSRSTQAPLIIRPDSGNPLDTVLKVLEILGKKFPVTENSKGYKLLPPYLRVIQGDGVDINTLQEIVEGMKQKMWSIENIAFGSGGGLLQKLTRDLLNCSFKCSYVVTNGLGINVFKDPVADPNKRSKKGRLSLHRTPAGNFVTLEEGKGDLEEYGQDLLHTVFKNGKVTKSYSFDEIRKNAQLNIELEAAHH
Method: as §1

## CCN(CC)CCCOc1cccc(-c2cccc3c2CCN3C(=O)c2ncc(CNC(=NC#N)Nc3ccncc3)s2)c1 [LZFPN-90]
PD-L1; LZFPN-90 20 nM vs blank group
  thermal stability of PD-L1: the stability of NAMPT and PD-L1 increased
PD-L1; 38 ℃
  Relative band intensity (PD-L1): 0.8 and 0.83
PD-L1; 42 ℃
  Relative band intensity (PD-L1): 0.79 and 0.8
PD-L1; 46 ℃
  Relative band intensity (PD-L1): 0.86 and 0.82
PD-L1; 50 ℃
  Relative band intensity (PD-L1): 0.7 and 0.76
PD-L1; 54 ℃
  Relative band intensity (PD-L1): 0.56 and 0.61
PD-L1; 58 ℃
  Relative band intensity (PD-L1): 1 and 1.07
PD-L1; 62 ℃
  Relative band intensity (PD-L1): 0.96 and 0.92
PD-L1; 66 ℃
  Relative band intensity (PD-L1): 0.36 and 0.31
HepG2 cells
  Relative inhibition (敏感性): 0.58
A2780 cells [1]; LZ90-H (2 nM)
  Colony formation relative to Ctrl: 0.01
A2780 cells [1]; LZ90-L (0.5 nM), Ctrl = 1
  Colony formation relative to Ctrl: 0.64
A2780 cells [1]; LZ90-M (1 nM)
  Colony formation relative to Ctrl: 0.11
HCT-116 cells; LZ90 20
  Cell cycle G0/G1: 30.68 and 20.48 and 22.54
  Cell cycle G2/M: 39.61 and 24.71 and 42.91
  Cell cycle S: 43.42 and 36.35 and 37.23
HCT-116 cells; LZ90 40
  Cell cycle G0/G1: 26.06 and 19.94 and 21.52
  Cell cycle G2/M: 39.6 and 30.95 and 41.08
  Cell cycle S: 42.06 and 38.61 and 38.5
HCT-116 cells; LZ90 60
  Cell cycle G0/G1: 42.69 and 40.27 and 41.43
  Cell cycle G2/M: 18.16 and 13.12 and 19.4
  Cell cycle S: 43.44 and 39.68 and 39.66
LLC cells; LZ90 20
  Cell cycle G0/G1: 32.7 and 33.42 and 33.1
  Cell cycle G2/M: 8.23 and 9.12 and 10.84
  Cell cycle S: 58.16 and 55.72 and 58.65
LLC cells; LZ90 40
  Cell cycle G0/G1: 31.17 and 30.64 and 32.74
  Cell cycle G2/M: 10.63 and 9.6 and 10.7
  Cell cycle S: 59.19 and 58.63 and 56.62
LLC cells; LZ90 60
  Cell cycle G0/G1: 31.65 and 30.97 and 32.77
  Cell cycle G2/M: 11.3 and 9.97 and 11.14
  Cell cycle S: 58.36 and 57.86 and 55.9
A2780 cells [2]; LZ90 15 nM
  Apoptotic cells (sum of both Annexin-positive quadrants): 5.88 and 5.86 and 5.93
A2780 cells [2]; LZ90 60 nM
  Apoptotic cells (sum of both Annexin-positive quadrants): 12.2 and 12.06 and 12.87
A2780 cells [2]; LZ90 240 nM
  Apoptotic cells (sum of both Annexin-positive quadrants): 48.53 and 48.13 and 46.72
[3]; 14 days, Fig 7B
  TIR / tumor growth inhibition (TGI) rate at endpoint: 76.01%
[3]; LLC OE NAMPT/PD-L1, Fig 7G
  TIR (relative tumor weight): 76.0%
[3]; LLC OE NAMPT/PD-L1 model
  effect on the organs of mice: minor effect on the organs of mice
[4]
  inhibition at 0.1 µM: 48.2%
[5]
  inhibition at 0.1 µM: 26.8%
[6]
  inhibition at 0.1 µM: 21.9%
[7]
  survival of lung cancer organoids: the survival of the organoids was decreased significantly
NAMPT; LZFPN-90 20 nM vs blank group
  thermal stability of NAMPT: the stability of NAMPT and PD-L1 increased
NAMPT; 38 ℃
  Relative band intensity (NAMPT): 1.21 and 1.06
NAMPT; 42 ℃
  Relative band intensity (NAMPT): 1.16 and 1.1
NAMPT; 46 ℃
  Relative band intensity (NAMPT): 1.06 and 1.08
NAMPT; 50 ℃
  Relative band intensity (NAMPT): 1.08 and 1.02
NAMPT; 54 ℃
  Relative band intensity (NAMPT): 1.25 and 1.19
NAMPT; 58 ℃
  Relative band intensity (NAMPT): 1.21 and 1.16
NAMPT; 62 ℃
  Relative band intensity (NAMPT): 1.18 and 1.13
NAMPT; 66 ℃
  Relative band intensity (NAMPT): 0.52 and 0.48
